Measured values published in US20100048519A1, “METHODS OF TREATMENT FOR ULCERATIVE COLITIS USING AMINOSALICYLATE” (priority 2006, published 2010).

How the values were obtained:
Type in all cases: in vivo, human
[1] = test system: person diagnosed with moderate Ulcerative colitis; assay: Single-patient treatment examples (Examples 2-5): person diagnosed with moderate ulcerative colitis
Text: A 70 kg person diagnosed with moderate Ulcerative colitis is prescribed a pharmaceutical oral composition comprising 1.2 g of olsalazine (mol. wt. 302.24), a mesalamine dimer, two tablets to be taken twice daily for a total of 4.8 g/day of the 5-ASA dimer (5-ASA mol. wt.=153.14). The patient takes two tablets of the pharmaceutical in the morning and two tablets in the evening such that about 4.8 g/day of 5-ASA is delivered. The Physician's Global Assessment (PGA) score improves in comparison to baseline and rectal bleeding reduces. A 72 kg person diagnosed with moderate Ulcerative colitis is prescribed a pharmaceutical composition comprising four 1.2 g mesalamine delayed-release tablets, to be taken once daily. The four tablets are taken in the morning so that 4.8 g/day of 5-ASA is delivered. The Physician's Global Assessment (PGA) score improves in comparison to baseline and rectal bleeding reduces. A 75 kg person diagnosed with moderate Ulcerative colitis is prescribed a pharmaceutical oral composition comprising two 1.2 g balsalazide delayed-release tablets, to be taken three times daily for a total of 7.2 g/day of balsalazide; this regimen is calculated to deliver about 3.1 g of 5-ASA. The Physician's Global Assessment (PGA) score improves in comparison to baseline and rectal bleeding reduces. A 71 kg person diagnosed with moderate Ulcerative colitis is prescribed a pharmaceutical composition comprising a rectal mesalamine foam. The foam is administered three times per day (morning, afternoon, and evening) such that 1 g of mesalamine is administered at each interval for a total of 3 g of mesalamine per day. The Physician's Global Assessment (PGA) score improves in comparison to baseline and rectal bleeding is reduced.

[2] = test system: male patients with moderate ulcerative colitis; assay: Study 1: phase III, multi-center, randomized, double-blind, controlled clinical trial, overall improvement (treatment success) at week 6; details: moderate disease
Method: (§1) Administration of mesalamine at 4.8 g/day via three daily doses consisting of two, 800 mg dosage tablets provides a clear efficacy benefit over 2.4 g/day of mesalamine given as three daily doses consisting of two, 400 mg dosage tablets and addresses an unmet medical need for men with moderate ulcerative colitis. […] Data from patients with mild to moderate Ulcerative colitis (UC) are combined and analyzed from two phase III, multi-center, randomized, double-blind, controlled clinical trials of identical design assessing the safety and clinical efficacy of the increased dosage of 5-ASA. The two clinical trials are referred to herein as “Study 1” and “Study 2.” The primary endpoint is the percentage of moderate UC patients achieving overall improvement (i.e., treatment success) from baseline at week 6. This is defined as: (1) complete response (remission); complete resolution of signs and symptoms (stool frequency, rectal bleeding, Patient Functional Assessment (PFA) and sigmoidoscopy score) and a Physician's Global Assessment (PGA) of 0; or (2) partial response; improvement from baseline in the PGA score and improvement in at least one clinical assessment (stool frequency, rectal bleeding, PFA or sigmoidoscopy score) and no worsening in any of the other clinical assessments. […]

[3] = test system: male patients with moderate ulcerative colitis; assay: Study 2: phase III, multi-center, randomized, double-blind, controlled clinical trial, overall improvement (treatment success) at week 6; details: moderate disease
Method: as §1

[4] = test system: male patients with moderate ulcerative colitis; assay: Bayesian analysis of success rate in men with moderate disease
Method: In addition, a Bayesian analysis is conducted to calculate the probability that treatment with the 4.8 g/day dose in men results in a higher success rate than treatment with the 2.4 g/day dose. This type of analysis considers data from any previous studies conducted using either of the two dose levels. Success rates from male patients with moderate disease at baseline from three previous mesalamine studies are used to estimate the prior distributions for the 2.4 g/day dose and the 4.8 g/day dose. Using these prior distributions and Bayes analyses, the “posterior distribution” is calculated for each dose level based on the data obtained from […].

[5] = test system: male patients with moderate ulcerative colitis; assay: Study 1 and Study 2 combined: subgroup analyses and safety
Method: Data from patients with mild to moderate Ulcerative colitis (UC) are combined and analyzed from two phase III, multi-center, randomized, double-blind, controlled clinical trials of identical design assessing the safety and clinical efficacy of the increased dosage of 5-ASA. The two clinical trials are referred to herein as “Study 1” and “Study 2.” Pre-specified subgroup analyses for fifty-four demographic and baseline characteristics are performed in patients with moderately active disease (PGA score=2) to assess consistency of primary endpoint. […] To further evaluate the robustness of the results in men with moderate disease, whisker plots (i.e., point estimate and 95% confidence interval for the difference between the 2.4 g/day group and the 4.8 g/day group) for various subgroups defined on the basis of baseline characteristics (e.g., disease severity, demographic parameters) are prepared. […] FIG. 1 (a) is a subgroup analysis of treatment outcome at week 6 for male patients with moderate disease for Study 1 and Study 2 combined; (b) is a subgroup analysis of treatment outcome at week 6 for female patients with moderate disease for Study 1 and Study 2 combined. FIG. 2 (a) is a subgroup analysis of treatment outcome at week 6 for male patients with moderate disease for Study 1 and Study 2 combined; (b) is a subgroup analysis of treatment outcome at week 6 for female patients with moderate disease for Study 1 and Study 2 combined. FIG. 3 (a) is a subgroup analysis of treatment outcome at week 6 for male patients with moderate disease for Study 1 and Study 2 combined; (b) is a subgroup analysis of treatment outcome at week 6 for female patients with moderate disease for Study 1 and Study 2 combined. […]

[6] = Example 4, oral, two 1.2 g delayed-release tablets three times daily, 7.2 g/day (about 3.1 g 5-ASA), 75 kg person
[7] = Example 3, four 1.2 g delayed-release tablets once daily, 4.8 g/day, 72 kg person

O=C(O)CCNC(=O)c1ccc(/N=N/c2ccc(O)c(C(=O)O)c2)cc1 [balsalazide, (E)-5-[[4-[[(2-carboxyethyl)amino]carbonyl]phenyl]azo]-2-hydroxybenzoic acid]
Physician's Global Assessment (PGA) score in comparison to baseline [1, 6]: improves | Rectal bleeding [1, 6]: reduces

Nc1ccc(O)c(C(=O)O)c1 [mesalamine, 5-amino-2-hydroxybenzoic acid]
Difference in Proportions (4.8 g/day vs 2.4 g/day) ([2]; Primary Analysis): 25.5% | Difference in Proportions (4.8 g/day vs 2.4 g/day) ([2]; Set-to-Failure analysis): 27.3% | Difference in Proportions (4.8 g/day vs 2.4 g/day) ([3]; Primary Analysis): 27.5% | Difference in Proportions (4.8 g/day vs 2.4 g/day) ([3]; Set-to-Failure analysis): 24.8% | Probability of a successful treatment outcome (Bayes analysis) ([4]; 2.4 g/day dose, 95% credible interval 35.7%, 58.9%): 47.2% | Probability of a successful treatment outcome (Bayes analysis) ([4]; 4.8 g/day dose, 95% credible interval 64.9%, 83.5%): 74.7% | Probability that 4.8 g/day dose results in a higher success rate than 2.4 g/day dose ([4]; Bayes analysis): 99.97% | Safety profile of 4.8 g/day regimen versus 2.4 g/day regimen ([5]; 4.8 g/day (800 mg tablet) vs 2.4 g/day (400 mg tablet), oral delayed-release): comparable | Difference between 4.8 g/day group and 2.4 g/day group across pre-specified subgroups ([5]; males with moderate disease, combined population, 51 of 54 subgroups): consistently superior to the 2.4 g/day group | Observed differences in success rate between treatment groups (4.8 vs 2.4 g/day) ([5]; men with moderate disease, both studies): approximately 25% | Physician's Global Assessment (PGA) score in comparison to baseline [1, 7]: improves | Rectal bleeding [1, 7]: reduces

O=C(O)c1cc(N=Nc2ccc(O)c(C(=O)O)c2)ccc1O [olsalazine, 3,3′-dicarboxy-4,4′-dihydroxyazobenzene]
Physician's Global Assessment (PGA) score in comparison to baseline ([1]; Example 2, oral, two 1.2 g tablets twice daily, 4.8 g/day, 70 kg person): improves
